The source of these data is article PMC12749166, “Fragment-based drug design of a bacterial kinase inhibitor capable of increasing the antibiotic sensitivity of clinical isolates” (Communications Chemistry, 2025).

Assay [1] concerns the target T1, APH(3’)-IIa (Klebsiella pneumoniae, UniProt P00552).
T1 construct: His-tag (inferred from HisTrap purification); made in house; host or cells: E. coli BL21
The assay is described as follows: biochemical. Also on record: species or system K. pneumoniae.

The target in the next assay is T2, APH(3’)-Ib (Escherichia coli, UniProt P14509).
T2 construct: His-tag (inferred from HisTrap purification); made in house; host or cells: E. coli BL21
T2 sequence (P14509 whole entry): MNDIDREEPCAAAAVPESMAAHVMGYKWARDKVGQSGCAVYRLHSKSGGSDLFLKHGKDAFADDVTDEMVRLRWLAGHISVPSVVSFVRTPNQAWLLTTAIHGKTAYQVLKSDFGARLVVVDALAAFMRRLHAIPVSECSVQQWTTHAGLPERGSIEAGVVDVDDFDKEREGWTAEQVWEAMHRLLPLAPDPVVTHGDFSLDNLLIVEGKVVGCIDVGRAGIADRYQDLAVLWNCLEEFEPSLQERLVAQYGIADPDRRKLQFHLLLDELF
The assay is described as follows: biochemical. Also on record: species or system E. coli and K. pneumoniae.

For the next assay, the system named is S. aureus C0032. The assay is described as follows: Bacterial growth kinetics over 24 h. The conditions noted are these: for Increase of latency: 500 µM 83. It is filed as cell-based.
Assay [2] concerns the target T3, APH(3’)-IIb (Pseudomonas aeruginosa, UniProt Q9HWR2, M95L).
T3 sequence (Q9HWR2 1-268 M95L): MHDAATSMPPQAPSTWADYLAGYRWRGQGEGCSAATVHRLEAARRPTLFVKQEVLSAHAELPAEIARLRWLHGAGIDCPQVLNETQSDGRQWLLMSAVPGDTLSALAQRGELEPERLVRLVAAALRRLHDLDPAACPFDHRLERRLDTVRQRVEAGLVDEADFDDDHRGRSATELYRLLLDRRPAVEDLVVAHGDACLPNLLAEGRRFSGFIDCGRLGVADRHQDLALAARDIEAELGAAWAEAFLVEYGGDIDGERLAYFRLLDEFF
The assay is described as follows: biochemical.
Experimental: Plates were placed in a Clariostar plate reader. […] The initial rate constants (kss) were then measured using a linear regression of the absorbance as a function of time using GraFit software (v. 7.0.3, Erithacus software). Inhibition constants were determined by global fittings of the dependences of kss as a function of ATP and inhibitor concentrations, using a competitive inhibition equation and GraFit software. The standard error of the Ki value was determined in the GraFit software based on the global fitting of four experimental series.

The target in assay [3] is T1, APH(3’)-IIa. The assay is described as follows: Isothermal Titration Calorimetry. Type of assay: binding, K. pneumoniae. The protocol: ITC experiments were performed on three different machines: a MicroCal VP-ITC (GE Healthcare), a MicroCal PEAQ-ITC (Malvern), or a MicroCal iTC200 (Malvern). The architecture and principles are similar for the three different systems. The experiments were carried out in Buffer HEPES at 25 °C. Titrations consisted of twenty injections of 1.5 µL inhibitors, every 120 seconds, into the measuring cell using the injection syringe rotating at 750 rpm. The data were analyzed using the MicroCal PEAQ-ITC software (v. 1.52, Malvern) using the single-site binding model to fit the raw data. The standard error of the Kd value was determined from measurements made on distinct samples (n indicated in the text).
Background: Isothermal titration calorimetry measures the heat released or taken up as one component is titrated into another.

The target in assay [4] is T3, APH(3’)-IIb. The assay is described as follows: biochemical. The source holds these as a separate data set.
Experimental: (§1) The reaction mixture consists of the APH and its substrates, as well as a potential inhibitor for inhibition measurements. Reactions were initiated by adding the ATP solution supplemented or not with the inhibitor, in a thermostated beaker containing the APH. […] The reaction was stopped at several time points by adding 80 µL of the enzymatic reaction mixture from the beaker to 40 µL of 10% perchloric acid (PCA) in an Eppendorf tube. Samples were then centrifuged for 30 min at 12750 rpm and 8 °C. 100 µL of the supernatant was then mixed with 900 µL of mobile phase (250 mM NaH2PO4, 50% Acetonitrile, pH 5.5) supplemented with KOH to readjust the pH to 5.5 before injection. […] 100 µL of samples were injected on a SAX PartiSphere column (AIT France) at a flow rate of 1 mL min^−1. ATP and ADP peaks were integrated, and the area under the peaks was calculated using OpenLab CDS software (v. ChemStation, Agilent). The kss values were then measured using linear regression in GraFit software and IC50 determined by fitting with a hyperbola the percentage of inhibition as a function of inhibitor concentration. The standard error of the IC50 value was determined in the GraFit software based on the fitting of the experimental data.
Another assay addresses APH(2”)-IVa (Enterococcus casseliflavus, UniProt O68183). The assay is described as follows: IC50 by HPLC quantification of ATP and ADP. Type of assay: biochemical, E. casseliflavus.
The subject of another assay is P. aeruginosa C0307. The assay is described as follows: Bacterial growth kinetics over 24 h. Type of assay: cell-based.
[5] abbreviates: up to 500 µM (109 µg mL^−1), no kanamycin A, 24 h.

T1 sequence (P00552 whole entry): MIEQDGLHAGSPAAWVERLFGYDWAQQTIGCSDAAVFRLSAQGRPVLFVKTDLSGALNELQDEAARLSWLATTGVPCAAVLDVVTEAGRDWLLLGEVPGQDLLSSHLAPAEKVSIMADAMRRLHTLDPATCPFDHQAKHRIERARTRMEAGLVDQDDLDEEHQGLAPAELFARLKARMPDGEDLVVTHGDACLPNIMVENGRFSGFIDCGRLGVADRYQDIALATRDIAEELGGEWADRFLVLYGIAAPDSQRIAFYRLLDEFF
APH(2”)-IVa, sequence (O68183 entry or part of it): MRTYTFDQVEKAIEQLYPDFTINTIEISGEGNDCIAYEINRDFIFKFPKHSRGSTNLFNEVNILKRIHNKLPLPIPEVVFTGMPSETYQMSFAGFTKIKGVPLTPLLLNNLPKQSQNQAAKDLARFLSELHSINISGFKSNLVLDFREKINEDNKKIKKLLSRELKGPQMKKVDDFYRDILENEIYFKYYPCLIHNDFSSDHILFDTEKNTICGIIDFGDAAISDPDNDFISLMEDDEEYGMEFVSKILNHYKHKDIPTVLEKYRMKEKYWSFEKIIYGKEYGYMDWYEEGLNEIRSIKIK
Experimental for APH(2”)-IVa: as §1

On to `Clc1cnc2[nH]ccc2c1-c1ccn[nH]1` [Compound 83], for which the figures for the inhibition at 100 µM against APH(3’)-IIa [1], against APH(3’)-Ib and on APH(3’)-IIb [2] were 76%, 55% and 91%, respectively. Moreover, the Increase of latency with S. aureus C0032 (1024 µg mL^−1 kanamycin A) came out at 14 h; with S. aureus C0032 (2048 µg mL^−1 kanamycin A), 18 h. Also, the Growth entry was “no growth was detected” in the assay on S. aureus C0032 (4096 µg mL^−1 kanamycin A, 250 and 500 µM 83, after 24 h); “growth did not begin after 24 h of incubation” with P. aeruginosa C0307 (32 µg mL^−1 kanamycin A, 500 µM 83, 24 h of incubation). Also, the “Effect on growth kinetics” value in the assay on S. aureus C0032 (256 and 512 µg mL^−1 kanamycin A, 500 µM 83, absence of imipenem) is listed as “slowed growth kinetics”. Besides, the “Toxicity of 83 alone on bacteria” value in the assay on S. aureus C0032 (setting [5]) and in the assay on P. aeruginosa C0307 (setting [5]) was “no toxicity” in each case. Also, the Kd (usually the free concentration of one partner at which half of the binding sites on the other are occupied at equilibrium, for simple one-to-one binding) on APH(3’)-IIa [3] worked out at 1250 nM. The same molecule gave a ΔH on APH(3’)-IIa [3] (ITC) of -13.1 kcal/mol. In addition, the IC50 (commonly the concentration that gives 50% inhibition) against APH(3’)-IIb [4] was 1230 ± 40 nM; against APH(2”)-IVa it was 840 ± 130 nM. In addition, in the assay on P. aeruginosa C0307 (8 µg mL^−1 kanamycin A, 83 at 500 µM), the “Delay of the onset of growth” value is “around 6 h”. In the assay with P. aeruginosa C0307 (16 µg mL^−1 kanamycin A, 500 µM 83), this molecule returned an Extension of latency of 12 h.
